Patent US11492361B2, “Compounds useful in HIV therapy” (GlaxoSmithKline Intellectual Property Development Limited, priority 2018, dated 2022)
Where a name gives a salt, the structure may show the parent alone.

Each compound was assayed on Jurkat HIV-luciferase clones (assay: Jurkat latency reversal assay). Settings: Homo sapiens, Jurkat, 48 h.
Format: cell-based
Protocol: Jurkat HIV-luciferase clones were maintained in RPMI medium 1640 (Gibco by Life Technologies) containing 10% (vol/vol) fetal bovine serum (SAFC/Sigma-Aldrich) and 25 units/mL penicillin, 25 units/mL streptomycin (Gibco by Life Technologies), and were split 1:4 every 3 to 4 days to maintain a cell density of ˜0.3 to 1 million cells/mL. The Jurkat clones were maintained with the addition of 500 nM EFV in the medium. Three Jurkat cell clones (C16, I15, and N6), each harboring one or two integrated HIV proviruses expressing the luciferase reporter gene, were added at equal amounts for a total of 5,000 cells per well to 384-well plates containing compound titrations. Dose-response testing was performed on compounds dissolved in dimethyl sulfoxide (DMSO, Fisher Scientific, Merelbeke, Belgium) dispensed in duplicate serial 3-fold, 14-point titrations using a D300e Digital Droplet Dispenser (Hewlett-Packard) to give final assay concentrations of 10 μM to 2.1 pM in 50 μL of medium at 0.5% DMSO (vol/vol) final concentration. Cells and compound were incubated at 37° C. for 48 hours, unless otherwise indicated, followed by the addition of 20 μL of Steady-Glo® Luciferase (Promega). Luminescence resulting from the induction of the virally expressed luciferase was measured using an EnVision 2102 Multilabel Plate Reader (Perkin Elmer). Dose-response relationships were analyzed with GraphPad PRISM 6 using a four-parameter logistic regression model to calculate the concentration of compound that gives half-maximal response (EC50) and the maximal percent activation compared to the vehicle control.

Compound	EC50
CN[C@@H](C)C(=S)N[C@H]1CCS[C@H]2CC(C)(C)[C@@H](C(=O)N[C@H]3c4ccccc4C[C@H]3OCCCCO[C@@H]3Cc4ccccc4[C@@H]3NC(=O)[C@H]3N4C(=O)[C@@H](NC(=S)[C@H](C)NC)CCS[C@H]4CC3(C)C)N2C1=O [compound 17, (4S,4′S,7S,7′S,9aS,9a′S)-N,N′-((1S,1′S,2R,2′R)-(butane-1,4-diylbis(oxy))bis(2,3-dihydro-1H-indene-2,1-diyl))bis(8,8-dimethyl-4-((S)-2-(methylamino)propanethioamido)-5-oxooctahydropyrrolo[2,1-b][1,3]thiazepine-7-carboxamide) dihydrochloride]	20.7 nM
CN[C@@H](C)C(=S)N[C@H]1CCS[C@H]2CC(C)(C)[C@@H](C(=O)N[C@H](C(=O)NCC#CC#CCNC(=O)[C@@H](NC(=O)[C@H]3N4C(=O)[C@@H](NC(=S)[C@H](C)NC)CCS[C@H]4CC3(C)C)c3ccccc3)c3ccccc3)N2C1=O [compound 32, (4S,4′S,7S,7′S,9aS,9a′S)-N,N′-((1S,1′S)-(hexa-2,4-diyne-1,6-diylbis(azanediyl))bis(2-oxo-1-phenylethane-2,1-diyl))bis(8,8-dimethyl-4-((S)-2-(methylamino)propanethioamido)-5-oxooctahydropyrrolo[2,1-b][1,3]thiazepine-7-carboxamide)]	166 nM
CN[C@@H](C)C(=O)N[C@H]1CCS[C@H]2CC(C)(C)[C@@H](C(=O)N[C@H]3c4ccccc4C[C@H]3C(=O)N3CCN(C(=O)[C@@H]4Cc5ccccc5[C@@H]4NC(=O)[C@H]4N5C(=O)[C@@H](NC(=O)[C@H](C)NC)CCS[C@H]5CC4(C)C)CC3)N2C1=O [compound 46, (4S,7S,9aS)-N-[(1R,2R)-2-{4-[(1R,2R)-1-[(4S,7S,9aS)-8,8-dimethyl-4-[(2S)-2-(methylamino)propanamido]-5-oxo-octahydropyrrolo[2,1-b][1,3]thiazepine-7-amido]-2,3-dihydro-1H-indene-2-carbonyl]piperazine-1-carbonyl}-2,3-dihydro-1H-inden-1-yl]-8,8-dimethyl-4-[(2S)-2-(methylamino)propanamido]-5-oxo-octahydropyrrolo[2,1-b][1,3]thiazepine-7-carboxamide]	127 nM
CN[C@@H](C)C(=O)N[C@H]1CCS[C@H]2CC(C)(C)[C@@H](C(=O)N[C@H](COCCCCCCCCCCOC[C@@H](NC(=O)[C@H]3N4C(=O)[C@@H](NC(=O)[C@H](C)NC)CCS[C@H]4CC3(C)C)c3ccccc3)c3ccccc3)N2C1=O [compound 60, (4S,4′S,7S,7′S,9aS,9a′S)-N,N′-((1S,1′S)-(decane-1,10-diylbis(oxy))bis(1-phenylethane-2,1-diyl))bis(8,8-dimethyl-4-((S)-2-(methylamino)propanamido)-5-oxooctahydropyrrolo[2,1-b][1,3]thiazepine-7-carboxamide) dihydrochloride]	3.5 nM
CN[C@@H](C)C(=S)N[C@H]1CCS[C@H]2CC(C)(C)[C@@H](C(=O)N[C@H](C(=O)N3CCN(C(=O)[C@@H](NC(=O)[C@H]4N5C(=O)[C@@H](NC(=S)[C@H](C)NC)CCS[C@H]5CC4(C)C)c4ccccc4)CC3)c3ccccc3)N2C1=O [compound 27, (4S,4′S,7S,7′S,9aS,9a′S)-N,N′-((1S,1′S)-piperazine-1,4-diylbis(2-oxo-1-phenylethane-2,1-diyl))bis(8,8-dimethyl-4-((S)-2-(methylamino)propanethioamido)-5-oxooctahydropyrrolo[2,1-b][1,3]thiazepine-7-carboxamide) dihydrochloride]	52.2 nM
CN[C@@H](C)C(=O)N[C@H]1CCS[C@H]2CC(C)(C)[C@@H](C(=O)N[C@H](COCCCCOC[C@@H](NC(=O)[C@H]3N4C(=O)[C@@H](NC(=O)[C@H](C)NC)CCS[C@H]4CC3(C)C)c3ccccc3)c3ccccc3)N2C1=O [compound 36, (4S,4′S,7S,7′S,9aS,9a′S)-N,N′-((1S,1′S)-(butane-1,4-diylbis(oxy))bis(1-phenylethane-2,1-diyl))bis(8,8-dimethyl-4-((S)-2-(methylamino)propanamido)-5-oxooctahydropyrrolo[2,1-b][1,3]thiazepine-7-carboxamide) dihydrochloride]	9.5 nM
CN[C@@H](C)C(=O)N[C@H]1CCS[C@H]2CC(C)(C)[C@@H](C(=O)N[C@H](COCCCCCCCCCCCCOC[C@@H](NC(=O)[C@H]3N4C(=O)[C@@H](NC(=O)[C@H](C)NC)CCS[C@H]4CC3(C)C)c3ccccc3)c3ccccc3)N2C1=O [compound 61, (4S,4′S,7S,7′S,9aS,9a′S)-N,N′-((1S,1′S)-(dodecane-1,12-diylbis(oxy))bis(1-phenylethane-2,1-diyl))bis(8,8-dimethyl-4-((S)-2-(methylamino)propanamido)-5-oxooctahydropyrrolo[2,1-b][1,3]thiazepine-7-carboxamide)]	11.8 nM
CN[C@@H](C)C(=O)N[C@H]1CCS[C@H]2CC(C)(C)[C@@H](C(=O)N[C@H]3c4ccccc4C[C@H]3OCCCOCCCO[C@@H]3Cc4ccccc4[C@@H]3NC(=O)[C@H]3N4C(=O)[C@@H](NC(=O)[C@H](C)NC)CCS[C@H]4CC3(C)C)N2C1=O [compound 51, (4S,7S,9aS)-N-[(1S,2R)-2-[3-(3-{[(1S,2R)-1-[(4S,7S,9aS)-8,8-dimethyl-4-[(2S)-2-(methylamino)propanamido]-5-oxo-octahydropyrrolo[2,1-b][1,3]thiazepine-7-amido]-2,3-dihydro-1H-inden-2-yl]oxy}propoxy)propoxy]-2,3-dihydro-1H-inden-1-yl]-8,8-dimethyl-4-[(2S)-2-(methylamino)propanamido]-5-oxo-octahydropyrrolo[2,1-b][1,3]thiazepine-7-carboxamide]	24 nM
CN[C@@H](C)C(=S)N[C@H]1CCS[C@H]2CC(C)(C)[C@@H](C(=O)N[C@H]3c4ccccc4C[C@H]3OCc3ccc(CO[C@@H]4Cc5ccccc5[C@@H]4NC(=O)[C@H]4N5C(=O)[C@@H](NC(=S)[C@H](C)NC)CCS[C@H]5CC4(C)C)cc3)N2C1=O [compound 23, (4S,4′S,7S,7′S,9aS,9a′S)-N,N′-((1S,1′S,2R,2′R)-((1,4-phenylenebis(methylene))bis(oxy))bis(2,3-dihydro-1H-indene-2,1-diyl))bis(8,8-dimethyl-4-((S)-2-(methylamino)propanethioamido)-5-oxooctahydropyrrolo[2,1-b][1,3]thiazepine-7-carboxamide)]	55.5 nM
CN[C@@H](C)C(=S)NC1CCS[C@H]2CC(C)(C)[C@@H](C(=O)N[C@H]3c4ccccc4CC[C@H]3C(=O)NCc3ccc(CNC(=O)[C@@H]4CCc5ccccc5C4NC(=O)[C@H]4N5C(=O)[C@@H](NC(=S)[C@H](C)NC)CCS[C@H]5CC4(C)C)cc3)N2C1=O (stereo in doubt) [compound 10, (4S,4′S,7S,7′S,9aS,9a′S)-N,N′-((1R,1′R,2R,2′R)-(((1,4-phenylenebis(methylene))bis(azanediyl))bis(carbonyl))bis(1,2,3,4-tetrahydronaphthalene-2,1-diyl))bis(8,8-dimethyl-4-((S)-2-(methylamino)propanethioamido)-5-oxooctahydropyrrolo[2,1-b][1,3]thiazepine-7-carboxamide)]	43.4 nM
CN[C@@H](C)C(=O)N[C@H]1CCS[C@H]2CC(C)(C)[C@@H](C(=O)Nc3ccc(Cc4ccc(NC(=O)[C@H]5N6C(=O)[C@@H](NC(=O)[C@H](C)NC)CCS[C@H]6CC5(C)C)cc4)cc3)N2C1=O [compound 1, (4S,4′S,7S,7′S,9aS,9a′S)-N,N′-(methylenebis(4,1-phenylene))bis(8,8-dimethyl-4-((S)-2-(methylamino)propanamido)-5-oxooctahydropyrrolo[2,1-b][1,3]thiazepine-7-carboxamide)]	47 nM
CN[C@@H](C)C(=S)N[C@H]1CCS[C@H]2CC(C)(C)[C@@H](C(=O)N[C@H]3c4ccccc4C[C@H]3C(=O)N3CCN(C(=O)[C@@H]4Cc5ccccc5[C@@H]4NC(=O)[C@H]4N5C(=O)[C@@H](NC(=S)[C@H](C)NC)CCS[C@H]5CC4(C)C)CC3)N2C1=O [compound 47, (4S,7S,9aS)-N-[(1R,2R)-2-{4-[(1R,2R)-1-[(4S,7S,9aS)-8,8-dimethyl-4-[(2S)-2-(methylamino)propanethioamido]-5-oxo-octahydropyrrolo[2,1-b][1,3]thiazepine-7-amido]-2,3-dihydro-1H-indene-2-carbonyl]piperazine-1-carbonyl}-2,3-dihydro-1H-inden-1-yl]-8,8-dimethyl-4-[(2S)-2-(methylamino)propanethioamido]-5-oxo-octahydropyrrolo[2,1-b][1,3]thiazepine-7-carboxamide]	1.2 nM
CN[C@@H](C)C(=O)N[C@H]1CCS[C@H]2CC(C)(C)[C@@H](C(=O)N[C@H]3c4ccccc4C[C@H]3OCCCCO[C@@H]3Cc4ccccc4[C@@H]3NC(=O)[C@H]3N4C(=O)[C@@H](NC(=O)[C@H](C)NC)CCS[C@H]4CC3(C)C)N2C1=O [compound 16, (4S,4′S,7S,7′S,9aS,9a′S)-N,N′-((1S,1′S,2R,2′R)-(butane-1,4-diylbis(oxy))bis(2,3-dihydro-1H-indene-2,1-diyl))bis(8,8-dimethyl-4-((S)-2-(methylamino)propanamido)-5-oxooctahydropyrrolo[2,1-b][1,3]thiazepine-7-carboxamide)]	10.1 nM
